Measured values as given in PubChem BioAssay AID2060607 (Molecular Pharmacology Branch, DTP, NCI, 2025).
“And” between values parts separate entries of the source, which are not always exact repeats. Equal values may be shown once.

Tested on: 876862-298-R-J1-PDC complex spheroids, viability % test/control
Experiment: Anticancer human tumor 876862-298-R-J1-PDC patient-derived endometrial carcinoma cell line growth inhibition [CLK]
Conditions: for viability, T/C: stronger effect = lower value
Source text: A high-throughput screen of multi-cell type tumor spheroids was designed to identify active combinations of […] and targeted small molecules. Complex spheroids include a stromal component modeled by human endothelial cells (HUVEC) and fibroblasts modeled by human mesenchymal stem cells (MSCs). The concentration ranges selected for each drug and investigational agent were based upon clinically achievable concentrations if the clinical Cmax of the agent was known.
Compounds. The drugs and investigational agents: cirtuvivint (SM08502; NSC835563), CC-671 (NSC850746), vemurafenib (NSC761431), tapotoclax (NSC804041), sotorasib (NSC818433), adagrasib (NSC831453), MRTX-1133 (NSC836407), BAY2416964 (NSC825713), copanlisib (NSC816437), inavolisib (NSC800729), abemaciclib (NSC768073), osimertinib (NSC779217), entinostat (NSC756642), eltanexor (KPT-8602, NSC794443), venetoclax (NSC766270), ceralasertib (NSC777638), bortezomib (NSC756655), olaparib (NSC753686), talazoparib (NSC767125), alisertib (NSC759677), peposertib (NSC802822), gemcitabine (NSC613327), 5-fluorouracil (NSC19893), SN-38 (NSC673596), oxaliplatin (NSC266046), paclitaxel (NSC125973), and doxorubicin (NSC123127), were obtained from the National Cancer Institute (NCI) Developmental Therapeutics Program Chemical Repository. The FDA-approved anticancer drug set is available from the Developmental Therapeutics Program at https://dtp.cancer.gov/organization/dscb/obtaining/available plates.htm. […] The stock solutions were prepared in dimethyl sulfoxide (DMSO, Sigma-Aldrich, St. Louis, MO, cat. D2650), except for the platinum complexes which were prepared in saline (Quality Biological, Gaithersburg, MD, cat. 114-055-101), at 800-fold the tested concentration and stored at -70 degrees C prior to their use. All drugs and investigational agents were tested over a range starting from a high concentration at or near the clinical Cmax and decreasing in half-log increments. If the clinical Cmax for an agent had not been determined, the highest concentration tested was 10 microM.
Cell Culture. All cells were maintained in an incubator at 37 degrees C and 5% CO2 with 95% humidity. The PDC lines were cultured according to standard operating procedures established by the NCI PDMR. Briefly, all PDCs were thawed and cultured in Matrigel-coated flasks prepared with a working solution of 1X Ham's F-12 nutrient mix, without supplementation (Invitrogen, Waltham, MA, cat. 11765054), 100 U/mL penicillin-streptomycin (Invitrogen, cat. 15140122), and 2.5% Matrigel (Corning Inc., Corning, NY, cat. 354248) for the first three passages. The 947758-054-R-J2-PDC line was cultured in 6B/Colon 1A media, which includes advanced DMEM/F-12 (Thermo Fisher Scientific, cat. 12634028), 10 mM HEPES (Thermo Fisher Scientific, cat. 15630080), 1X GlutaMAX supplement (Thermo Fisher Scientific, cat. 35050061), 0.1 mg/mL primocin (InvivoGen, cat. ant-pm-2), 10% defined fetal bovine serum, heat inactivated (HyClone Laboratories Inc., cat. SH30070.03HI), 1.25 mM N-Acetyl-L-cysteine (Sigma-Aldrich, cat. A9165), 10 mM nicotinamide (Sigma-Aldrich, cat. N0636), 1X B-27 supplement (Thermo Fisher Scientific, cat. 17504044), 1X N-2 supplement (Thermo Fisher Scientific, cat. 17502048), and 10 microM Y-27632 dihydrochloride (Tocris Bioscience, cat. 1254). The 876862-298-R-J1-PDC was cultured in 6E media, which includes all 6B/Colon 1A media components plus 50% L-WRN conditioned media (ATCC, cat. CRL-3276), 50 ng/mL recombinant human EGF recombinant protein (hEGF; Thermo Fisher Scientific, cat. PHG0311), 10 ng/mL recombinant human fibroblast growth factor 10 (hGFG-10; PeproTech, cat. 100-26), 1 ng/mL recombinant human fibroblast growth factor 2 (hFGF-2; PeproTech, cat. 100-18B), and 1 µM prostaglandin E2 (PGE2; Tocris, cat. 2296). The 227483-062-R1-J1-PDC line was cultured in Panc media, containing all 6E components except hFGF-2, with the addition of 500 nM SB-431542 (Selleckchem, cat. S1067) and 10 nM gastrin (Tocris, cat. 3006). […]
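Further: spheroids exposed to drugs for 7 days before readout.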
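Wherever viability, T/C is given: 100% = DMSO vehicle control wells.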

SMILES	IC50 (curve of compound)	viability, T/C (compound 0.0316 µM)	viability, T/C (compound 0.1 µM)	viability, T/C (compound 0.316 µM)	viability, T/C (compound 1 µM)	viability, T/C (compound 3.16 µM)	viability, T/C (compound 10 µM)	further results
C=C(F)C(=O)N1CCN(c2nc(OCC3CCCN3C)nc3c2CCN(c2cccc4cccc(Cl)c24)C3)CC1CC#N (centres undefined)	5.2 µM and 6.13 µM	97.6% and 102%	97.9% and 102%	92.6% and 96.1%	102%	86.3% and 96.5%	2.35% and 15.5%	
C=CC(=O)Nc1cc(Nc2nccc(-c3cn(C)c4ccccc34)n2)c(OC)cc1N(C)CCN(C)C	0.269 µM and 0.29 µM							viability, T/C (compound 0.000949 µM): 107% and 103%; viability, T/C (compound 0.003 µM): 98.7% and 109%; viability, T/C (compound 0.00949 µM): 100% and 103%; viability, T/C (compound 0.03 µM): 96.7% and 88.7%; viability, T/C (compound 0.0949 µM): 81% and 82.2%; viability, T/C (compound 0.3 µM): 46.5% and 48.2%
CC(CO)NC(=O)c1cc(-c2ccc(Cl)cc2)nn(-c2cnn(C)c2)c1=O (centres undefined)	> 10 µM	85% and 116%	92.3% and 95.9%	79.3% and 80.6%	88.4% and 76.2%	71.6% and 78.7%	56% and 64.9%	
CC(Nc1ccc2c(c1)OCCn1cc(N3C(=O)OCC3C(F)F)nc1-2)C(N)=O (centres undefined)	2.84 µM and 1.21 µM	105% and 86.6%	81.8% and 90.4%	76.5% and 68.3%	72.2% and 51.6%	48.5% and 38.3%	27.7% and 22.8%	
CC1(C)CCC(CN2CCN(c3ccc(C(=O)NS(=O)(=O)c4ccc(NCC5CCOCC5)c([N+](=O)[O-])c4)c(Oc4cnc5[nH]ccc5c4)c3)CC2)=C(c2ccc(Cl)cc2)C1	6.49 µM and 6.29 µM	102% and 88.4%	92% and 101%	105% and 99.1%	102% and 106%	111% and 121%	18.4% and 14.2%	
CC1COCCN1c1cc(C2(S(C)(=N)=O)CC2)nc(-c2ccnc3[nH]ccc23)n1 (centres undefined)	3.89 µM and 2.62 µM	110% and 102%	99.5% and 104%	89.4% and 94.8%	77.1% and 79.5%	55% and 44%	27% and 18.8%	
CCCS(=O)(=O)Nc1ccc(F)c(C(=O)c2c[nH]c3ncc(-c4ccc(Cl)cc4)cc23)c1F	8.63 µM and 7.53 µM	111% and 94.9%	107% and 108%	108% and 97.3%	100% and 110%	91.8% and 83.4%	43.5% and 39.1%	
CCc1c2c(nc3ccc(O)cc13)-c1cc3c(c(=O)n1C2)COC(=O)[C@]3(O)CC	< 0.00316 µM	6.83% and 6.05%	5.12% and 5.99%	3.64% and 4.64%	2.58% and 4.7%			viability, T/C (compound 0.00316 µM): 48% and 36.5%; viability, T/C (compound 0.01 µM): 9.1% and 7.37%
CN1CCN(c2cc(C(=O)Nc3cc4cc(-c5cnn(C)c5)ccc4cn3)ccn2)CC1		95.1% [middle of 12 runs]	49.8% [middle of 12 runs]	3.46% [middle of 12 runs]	1.68% [middle of 12 runs]	1.49% [middle of 12 runs]	1.35% [middle of 12 runs]	IC50 (compound alone, run of 09/18/2023): 99.4 nM [middle of 12 runs]
CNC(=O)c1ccc(Nc2nc(OC3CCCC3)c3c(-c4ccc5nc(C)oc5c4)c[nH]c3n2)c(OC)c1		86% [middle of 12 runs]	49.5% [middle of 12 runs]	37.8% [middle of 12 runs]	28.6% [middle of 12 runs]	24.6% [middle of 12 runs]	23.1% [middle of 12 runs]	IC50 (compound alone, run of 09/19/2023): 112 nM [middle of 11 runs]
COc1c(OCCCN2CCOCC2)ccc2c3n(c(=NC(=O)c4cnc(N)nc4)nc12)CCN3	0.0635 µM and 0.0421 µM	70.9% and 57%	37.8% and 26.3%	17% and 14.9%	15% and 16%			viability, T/C (compound 0.00316 µM): 105% and 81.8%; viability, T/C (compound 0.01 µM): 89.7% and 83.9%
Cn1ncnc1[C@H]1c2n[nH]c(=O)c3cc(F)cc(c23)N[C@@H]1c1ccc(F)cc1	> 0.1 µM	107% and 114%	107% and 101%					viability, T/C (compound 0.000316 µM): 110% and 102%; viability, T/C (compound 0.001 µM): 91.2% and 96.9%; viability, T/C (compound 0.00316 µM): 106% and 96.8%; viability, T/C (compound 0.01 µM): 103% and 105%
Nc1ccccc1NC(=O)c1ccc(CNC(=O)OCc2cccnc2)cc1	7.34 µM and 6 µM	99.9% and 95.4%	106% and 99.6%	105%	91.7% and 106%	80.1% and 75.2%	39.1% and 29.7%	
Nc1ccn(C2OC(CO)C(O)C2(F)F)c(=O)n1 (centres undefined)	< 0.0316 µM	12.8% and 8.55%	7.47% and 6.97%	7.3% and 6.5%	6.05% and 6.36%	6.22% and 8.41%	7.04% and 6.47%	
O=C(c1cc(Cc2n[nH]c(=O)c3ccccc23)ccc1F)N1CCN(C(=O)C2CC2)CC1	> 10 µM	105% and 91.5%	107% and 99%	109% and 99.4%	109% and 104%	108% and 106%	90.4% and 89.1%	
O=c1[nH]cc(F)c(=O)[nH]1	> 10 µM and 6.77 µM	99.1% and 101%	93.2% and 107%	100% and 99.6%	104% and 101%	70% and 56.4%	54.1% and 46.7%	

Continued, in another order:

IC50 (curve of compound)	SMILES	viability, T/C (compound 0.0316 µM)	viability, T/C (compound 0.1 µM)	viability, T/C (compound 0.316 µM)	viability, T/C (compound 1 µM)	viability, T/C (compound 3.16 µM)	viability, T/C (compound 10 µM)	further results
> 10 µM	C#Cc1c(F)ccc2cc(O)cc(-c3ncc4c(N5CC6CCC(C5)N6)nc(OCC56CCCN5CC(F)C6)nc4c3F)c12 (centres undefined)	95.8% and 117%	100% and 96.1%	90.8% and 110%	92.2% and 105%	103% and 100%	81.8% and 86.7%	
> 10 µM	C=CC(=O)N1CCN(c2nc(=O)n(-c3c(C)ccnc3C(C)C)c3nc(-c4c(O)cccc4F)c(F)cc23)C(C)C1 (centres undefined)	95.8%	97.3% and 99.5%	102% and 108%	106% and 103%	110% and 114%	94.6% and 83%	
0.00199 µM and 0.00164 µM	CC(C)CC(NC(=O)C(Cc1ccccc1)NC(=O)c1cnccn1)B(O)O (centres undefined)							viability, T/C (compound 0.000949 µM): 116% and 88.5%; viability, T/C (compound 0.003 µM): 13.2% and 7.38%; viability, T/C (compound 0.00949 µM): 0.57% and 0.51%; viability, T/C (compound 0.03 µM): 0.45% and 0.53%; viability, T/C (compound 0.0949 µM): 0.3% and 0.59%; viability, T/C (compound 0.3 µM): 0.2% and 0.9%
0.483 µM and 0.891 µM	CCN1CCN(Cc2ccc(Nc3ncc(F)c(-c4cc(F)c5nc(C)n(C(C)C)c5c4)n3)nc2)CC1	86.5% and 84.8%	68.3% and 76.1%	52.7% and 61.5%	46.3% and 48.5%			viability, T/C (compound 0.00316 µM): 91.2% and 109%; viability, T/C (compound 0.01 µM): 86.9% and 101%
8.2 µM and 7.14 µM	COC1C=CCC(C)C(C)S(=O)(=O)NC(=O)c2ccc3c(c2)N(CC2CCC21)CC1(CCCc2cc(Cl)ccc21)CO3 (centres undefined)	112% and 102%	97.2% and 97.7%	102% and 97.5%	107% and 99.3%	109% and 99.7%	38.3% and 29.6%	
0.0473 µM and 0.0522 µM	NC(=O)C(=Cn1cnc(-c2cc(C(F)(F)F)cc(C(F)(F)F)c2)n1)c1cncnc1							viability, T/C (compound 0.00949 µM): 78% and 78.2%; viability, T/C (compound 0.03 µM): 54.1% and 60.3%; viability, T/C (compound 0.0949 µM): 37.5% and 38.2%; viability, T/C (compound 0.3 µM): 33.6% and 27.7%; viability, T/C (compound 0.949 µM): 24.4% and 18.7%; viability, T/C (compound 3 µM): 13.4% and 12.4%
